We go through 55 compounds from the PolyMetriX glass transition set.

SMILES strings stand for the structures.

As to `*/C(F)=C(\F)C(F)(C(*)(F)F)C(F)(F)F` (repeat unit), the glass transition temperature is -3.00 °C. Consider `*C(=O)N1C(=O)N(C(=O)c2ccc3c(c2)C(=O)N(c2ccc(Oc4ccc(N5C(=O)c6ccc(*)cc6C5=O)cc4)cc2)C3=O)C(C)(C)C1=O` (repeat unit), for which the glass transition temperature came to 156.00 °C. `*C(=O)N1C(=S)N(C(=O)c2ccc3c(c2)C(=O)N(c2ccc(Oc4ccc(N5C(=O)c6ccc(*)cc6C5=O)cc4)cc2)C3=O)C(C)=C(C(=O)OCC)C1c1ccc(OC)cc1OC` (repeat unit) showed a glass transition temperature of 165.00 °C. `*C(=O)Oc1ccc(C(C)(C)c2ccc(OC(=O)c3ccc4c(c3)C(=O)N(c3ccc(-c5ccc(N6C(=O)c7ccc(*)cc7C6=O)cc5C)c(C)c3)C4=O)cc2)cc1` (repeat unit): the glass transition temperature came to 166.00 °C. In turn, `*C(=O)Oc1ccc(C23CC4CC(CC(C4)C2)C3)c(OC(=O)c2ccc3c(c2)C(=O)N(c2ccc(-c4ccc(N5C(=O)c6ccc(*)cc6C5=O)cc4C)c(C)c2)C3=O)c1` (repeat unit) yielded a glass transition temperature of 225.00 °C. In turn, `*C(=O)c1cc(C(=O)c2ccc3c(c2)C(=O)N(c2ccc(Oc4ccc(S(=O)(=O)c5ccc(Oc6ccc(N7C(=O)c8ccc(*)cc8C7=O)cc6)cc5)cc4)cc2)C3=O)cc(C(C)(C)C)c1` (repeat unit) showed a glass transition temperature of 254.50 °C. In the case of `*C(=O)c1ccc2c(c1)C(=O)N(c1ccc(-c3ccc(N4C(=O)c5ccc(*)cc5C4=O)cc3C)c(C)c1)C2=O` (repeat unit) it was 385.00 °C.

`*C(=O)c1ccc2c(c1)C(=O)N(c1ccc(Oc3ccc(C(c4ccc(Oc5ccc(N6C(=O)c7ccc(*)cc7C6=O)cc5C(F)(F)F)cc4)(C(F)(F)F)C(F)(F)F)cc3)c(C(F)(F)F)c1)C2=O` (repeat unit) came in with a glass transition temperature of 220.00 °C. Under `*C(=O)c1ccc2c(c1)C(=O)N(c1cccc(C(=O)c3ccc(Oc4ccc(N5C(=O)c6ccc(*)cc6C5=O)cc4C(F)(F)F)cc3)c1)C2=O` (repeat unit) stands 242.00 °C; under `*C(=O)c1cccc(C(=O)c2ccc3c(c2)C(=O)N(c2ccc(Oc4ccc(N5C(=O)c6ccc(*)cc6C5=O)cc4)cc2)C3=O)c1` (repeat unit), 244.00 °C; under `*CCCCCCCCCCCCN1C(=O)c2ccc(-c3ccc(-c4ccc5c(c4)C(=O)N(*)C5=O)cc3)cc2C1=O` (repeat unit), 86.00 °C. With `*CCCCCCCCCCN1C(=O)c2ccc(-c3ccc(-c4ccc5c(c4)C(=O)N(*)C5=O)cc3)cc2C1=O` (repeat unit), the glass transition temperature came to 103.00 °C.

For `*CCCCCCCCCN1C(=O)c2ccc(-c3ccc(-c4ccc5c(c4)C(=O)N(*)C5=O)cc3)cc2C1=O` (repeat unit), the glass transition temperature was 104.00 °C. Consider `*CCCCCCN1C(=O)c2ccc(-c3ccc(-c4ccc5c(c4)C(=O)N(*)C5=O)cc3)cc2C1=O` (repeat unit), for which the glass transition temperature was determined as 141.00 °C. `*CCCCNC(=O)c1ccc(C(C)(CC)c2ccc(C(=O)N*)cc2)cc1` (repeat unit) registered a glass transition temperature of 182.00 °C. Compound `*CCNC(=O)c1ccc([Si](CCCC)(CCCC)c2ccc(C(=O)NCCN(*)c3ccc(/C=C/c4ccc([N+](=O)[O-])cc4)cc3)cc2)cc1` (repeat unit) registered a glass transition temperature of 115.00 °C. In the case of `*Nc1ccc(C2(c3ccc(NC(=O)c4ccc(-c5ccc(C(*)=O)c(C)c5)cc4C)cc3)c3ccccc3-c3ccccc32)cc1` (repeat unit) it was 293.00 °C; in that of `*Nc1cccc2c(NC(=O)c3ccc(NC(=O)c4ccc([Si](C)(C)c5ccc(C(=O)Nc6ccc(C(*)=O)cc6)cc5)cc4)cc3)cccc12` (repeat unit), 378.00 °C. `*OC(=O)c1ccc(C(C)(C)c2ccc(C(*)=O)cc2)cc1` (repeat unit) showed a glass transition temperature of 100.00 °C. Take `*ON(C(F)(F)F)C(F)(F)/C(F)=C(\F)C(*)(F)F` (repeat unit): the glass transition temperature is -7.00 °C. `*Oc1ccc(-c2ccc(-c3ccc(Oc4ccc(C(c5ccc(*)cc5)(C(F)(F)F)C(F)(F)F)cc4)c(C(F)(F)F)c3)cc2)cc1C(F)(F)F` (repeat unit) showed a glass transition temperature of 207.50 °C. With `*Oc1ccc(C2(c3ccc(Oc4ccc(-c5ccc(-c6ccc(*)c(C(F)(F)F)c6)cc5)cc4C(F)(F)F)cc3)c3ccccc3-c3ccccc32)cc1` (repeat unit), the glass transition temperature was 237.00 °C. In turn, `*Oc1ccc(NC(=O)c2cc(-c3ccc(C(=O)O)c(C(=O)Nc4ccc(*)cc4)c3)ccc2C(=O)O)cc1` (repeat unit) showed a glass transition temperature of 184.40 °C. Turning to `*Oc1ccc(NC(=O)c2cc(-c3ccc(C(=O)OCC)c(C(=O)Nc4ccc(*)cc4)c3)ccc2C(=O)OCC)cc1` (repeat unit), the glass transition temperature was 190.2 °C. Compound `*Oc1ccc(Oc2ccc(Oc3ccc(NC(=O)c4ccc(-c5ccc(C(=O)Nc6ccc(*)cc6)c(C)c5)cc4C)cc3)cc2)cc1` (repeat unit) had a glass transition temperature of 200.00 °C.

In the case of `*Oc1ccc(S(=O)(=O)c2ccc(Oc3cccc(NC(=O)c4ccc(-c5ccc(C(=O)Nc6cccc(*)c6)c(C)c5)cc4C)c3)cc2)cc1` (repeat unit), the glass transition temperature amounted to 220.00 °C.

The compound `*Oc1ccc(Sc2ccc(Oc3ccc(-c4ccc(-c5ccc(*)c(C(F)(F)F)c5)cc4)cc3C(F)(F)F)cc2)cc1` (repeat unit) came in with a glass transition temperature of 164.50 °C. For `*Oc1cccc(NC(=O)c2ccc([Si](C)(C)c3ccc(C(*)=O)cc3)cc2)c1` (repeat unit), the glass transition temperature was found to be 220.00 °C. Under `*Oc1cccc(Oc2ccc(/N=C/c3ccc(N(c4ccccc4)c4ccc(/C=N/c5ccc(*)cc5)cc4)cc3)cc2)c1` (repeat unit) stands 174.00 °C; under `*c1ccc(-c2ccc(-c3nnc(-c4ccc([Si](c5ccccc5)(c5ccccc5)c5ccc(-c6nnc(*)o6)cc5)cc4)o3)cc2)cc1` (repeat unit), 278.00 °C. The compound `*c1ccc(-c2ccc(-n3c(=O)c4cc5c(=O)n(*)c(=O)c5c(C(F)(F)F)c4c3=O)cc2C)c(C)c1` (repeat unit) gave a glass transition temperature of 373.00 °C.

`*c1ccc(-c2ccc(N(*)c3ccc(C(F)(F)F)cc3)cc2)cc1` (repeat unit) showed a glass transition temperature of 225.00 °C.

Regarding `*c1ccc(-c2ccc(N(*)c3ccc(CCCC)cc3)cc2)cc1` (repeat unit), the glass transition temperature was 180.00 °C. Under `*c1ccc(-c2ccc(N(c3ccc(OC)cc3)c3ccc4ccc(N(*)c5ccc(OC)cc5)cc4c3)cc2)cc1` (repeat unit) stands 232.00 °C. Consider `*c1ccc(-c2ccc(N(c3ccccc3)c3ccc(-c4ccc(N(c5ccccc5)c5ccc(-c6ccc(-n7c(=O)c8cc9c(=O)n(*)c(=O)c9cc8c7=O)cc6)cc5)cc4)cc3)cc2)cc1` (repeat unit), for which the glass transition temperature came out at 220.00 °C. For the compound `*c1ccc(-c2ccc([Si](*)(CCCC)CCCC)s2)s1` (repeat unit), the glass transition temperature is -10.00 °C. Consider `*c1ccc(-c2ccc3c(c2)C(CCCCCCC#N)(CCCCCCC#N)c2cc(*)ccc2-3)cc1` (repeat unit), for which the glass transition temperature was found to be 90.00 °C. `*c1ccc(-c2ccc3c(c2)C(CCCCCCCC)(CCCCCCCC)c2cc(*)ccc2-3)c(F)c1` (repeat unit) had a glass transition temperature of 34.00 °C.

With `*c1ccc(-c2ccc3nc(*)cc(-c4ccccc4)c3c2)cc1` (repeat unit), the glass transition temperature was found to be 383.00 °C.

The compound `*c1ccc(-c2cnc3cc4nc(*)cnc4cc3n2)cc1` (repeat unit) came in with a glass transition temperature of 392.00 °C. Consider `*c1ccc(-c2nc3cc(C)ccc3o2)c(*)c1` (repeat unit), for which the glass transition temperature was 221.00 °C.

Compound `*c1ccc(-c2nc3cc(S(=O)(=O)c4ccc5nc(-c6ccccc6)c(-c6ccc(-n7c(=O)c8cc9c(=O)n(*)c(=O)c9cc8c7=O)cc6)nc5c4)ccc3nc2-c2ccccc2)cc1` (repeat unit) registered a glass transition temperature of 186.00 °C. `*c1ccc(-c2nc3cc4sc(*)nc4cc3s2)cc1` (repeat unit): the glass transition temperature was 25.00 °C. `*c1ccc(-c2nc3ccc(Oc4ccc5nc(*)c(-c6ccccc6)c(-c6ccccc6)c5c4)cc3c(-c3ccccc3)c2-c2ccccc2)cc1` (repeat unit): the glass transition temperature amounted to 345.00 °C. `*c1ccc(-c2nnc(*)o2)c(OCCCCCCCC)c1` (repeat unit): the glass transition temperature stood at 173.00 °C.

For the compound `*c1ccc(-c2nnc(-c3cccc(-c4nnc(*)n4-c4ccccc4)c3)n2-c2ccccc2)cc1` (repeat unit), the glass transition temperature is 272.50 °C. Compound `*c1ccc(-n2c(=O)c3cc4c(=O)n(*)c(=O)c4cc3c2=O)c(S(=O)(=O)[O][Na])c1` (repeat unit) showed a glass transition temperature of 227.00 °C. For `*c1ccc(/C=C/c2ccc(-n3c(=O)c4cc5c(=O)n(*)c(=O)c5cc4c3=O)cc2S(=O)(=O)[O][Na])c(S(=O)(=O)[O][Na])c1` (repeat unit), the glass transition temperature turned out to be 228.00 °C. `*c1ccc(C(c2ccccc2)c2ccc(N(c3ccc(C)cc3)c3ccc(-c4ccc(N(*)c5ccc(C)cc5)cc4)cc3)cc2)cc1` (repeat unit) displayed a glass transition temperature of 239.00 °C. Consider `*c1ccc(S(=O)(=O)c2ccc(-n3nccc3-c3ccc(-c4ccnn4*)cc3)cc2)cc1` (repeat unit), for which the glass transition temperature is 266.00 °C. `*c1ccc(S(=O)(=O)c2ccc(-n3nccc3-c3cccc(-c4ccnn4*)c3)cc2)cc1` (repeat unit) gave a glass transition temperature of 218.00 °C. The compound `*c1ccc([Si](c2ccccc2)(c2ccccc2)c2ccc(-c3nnc(*)o3)cc2)cc1` (repeat unit) gave a glass transition temperature of 262.00 °C. In the case of `*c1ccc([Si](c2ccccc2)(c2ccccc2)c2ccc(-c3nnc(-c4ccc(-c5nnc(*)o5)cc4)o3)cc2)cc1` (repeat unit) it was 274.00 °C; in that of `*c1ccc2oc(-c3ccc(C(c4ccccc4)(c4ccc(-c5nc6cc(C(*)(C(F)(F)F)C(F)(F)F)ccc6o5)cc4)C(F)(F)F)cc3)nc2c1` (repeat unit), 310.00 °C; in that of `*c1ccc2oc(-c3ccc(C(c4ccccc4)(c4ccc(-c5nc6cc(C(*)(c7ccccc7)C(F)(F)F)ccc6o5)cc4)C(F)(F)F)cc3)nc2c1` (repeat unit), 330.00 °C.
